Data as given in article PMC6736568, “Discovery of Novel Anti-cryptosporidial Activities From Natural Products by in vitro High-Throughput Phenotypic Screening” (Frontiers in Microbiology, 2019).
Where a name gives a salt, the structure may show the parent alone. Read-outs that look alike come from different tables or passages of the source.

Experiments:
Cryptosporidium parvum = test: qRT-PCR assay of the growth of C. parvum in vitro in HCT-8 host cells (primary and secondary screening, EC50); format: cell-based; details: Cryptosporidium parvum, HCT-8; for inhibition at 3.3 µM: secondary screening at 3.3 uM, read-out: % Inhibition (3.3 uM)
in vitro = details: for cytotoxicity at 41 h, 10 µM: human
[1] = primary screening at 10 uM, read-out: Inhibition (%)
[2] = primary screening at 10 uM, treated vs control

## COc1cc(C2Oc3cc([C@H]4Oc5cc(O)cc(O)c5C(=O)[C@@H]4O)ccc3OC2CO)ccc1O (some centres unmarked) [SILIBININ]
Cryptosporidium parvum; [1]
  inhibition at 10 µM: 93.5%
Cryptosporidium parvum
  inhibition at 3.3 µM: -30%
HCT-8 host cells (Hs18S); human, 41 h, 10 μM
  Hs18S ΔCT: -0.02
In vitro
  cytotoxicity at 41 h, 10 µM: -1.4%

## COc1cc(/C=C/C(=O)O)cc(OC)c1OC [SINAPIC ACID METHYL ETHER]
Cryptosporidium parvum; [1]
  inhibition at 10 µM: -20.8%
HCT-8 host cells (Hs18S); [2]
  Hs18S ΔCT: 0.66
In vitro
  cytotoxicity at 10 µM: 36.6%

## COc1ccc(-c2cc(=O)c3c(OC)c(OC)c(OC)cc3o2)cc1OC [SINENSETIN]
Cryptosporidium parvum; [1]
  inhibition at 10 µM: 42.8%
HCT-8 host cells (Hs18S); human, 41 h, 10 μM
  Hs18S ΔCT: 0.39
In vitro
  cytotoxicity at 41 h, 10 µM: 23.6%

## CO[C@H]1C[C@@H]2CC[C@@H](C)[C@@](O)(O2)C(=O)C(=O)N2CCCC[C@H]2C(=O)O[C@H]([C@H](C)C[C@@H]2CC[C@@H](O)[C@H](OC)C2)CC(=O)[C@H](C)/C=C(\C)[C@@H](O)[C@@H](OC)C(=O)[C@H](C)C[C@H](C)/C=C/C=C/C=C/1C [SIROLIMUS]
Cryptosporidium parvum; [1]
  inhibition at 10 µM: 76.6%
Cryptosporidium parvum
  inhibition at 3.3 µM: 35%
HCT-8 host cells (Hs18S); human, 41 h, 10 μM
  Hs18S ΔCT: 0.94
In vitro
  cytotoxicity at 41 h, 10 µM: 47.9%

## CN[C@@H]1[C@@H](O)[C@@H](O[C@@H]2[C@@H](O)[C@H](O[C@H]3OC(CN)=CC[C@H]3N)[C@@H](N)C[C@H]2N)OC[C@]1(C)O [SISOMICIN SULFATE]
Cryptosporidium parvum; [1]
  inhibition at 10 µM: 41.1%
HCT-8 host cells (Hs18S); human, 41 h, 10 μM
  Hs18S ΔCT: -0.11
In vitro
  cytotoxicity at 41 h, 10 µM: -7.8%

## CC[C@H](CC[C@@H](C)[C@H]1CC[C@H]2[C@@H]3CC=C4C[C@@H](OC(C)=O)CC[C@]4(C)[C@H]3CC[C@]12C)C(C)C [SITOSTERYL ACETATE]
Cryptosporidium parvum; [1]
  inhibition at 10 µM: -3.86%
HCT-8 host cells (Hs18S); human, 41 h, 10 μM
  Hs18S ΔCT: -0.17
In vitro
  cytotoxicity at 41 h, 10 µM: -12.4%

## C[C@@H]1CC[C@@]2(NC1)O[C@H]1C[C@H]3[C@@H]4CC=C5C[C@@H](O)CC[C@]5(C)[C@H]4CC[C@]3(C)[C@H]1[C@@H]2C [SOLASODINE]
Cryptosporidium parvum; [1]
  inhibition at 10 µM: -28.3%
HCT-8 host cells (Hs18S); [2]
  Hs18S ΔCT: 0.07
In vitro
  cytotoxicity at 10 µM: 4.6%

## OC[C@@H](O)[C@@H](O)[C@H](O)[C@@H](O)CO [SORBITOL]
Cryptosporidium parvum; [1]
  inhibition at 10 µM: -33.8%
HCT-8 host cells (Hs18S); human, 41 h, 10 μM
  Hs18S ΔCT: -0.18
In vitro
  cytotoxicity at 41 h, 10 µM: -13.2%

## CC(=O)N[C@@H](CC(=O)N[C@@H](CCC(=O)O)C(=O)O)C(=O)O [SPAGLUMIC ACID]
Cryptosporidium parvum; [1]
  inhibition at 10 µM: 31.3%
HCT-8 host cells (Hs18S); [2]
  Hs18S ΔCT: 0.18
In vitro
  cytotoxicity at 10 µM: 11.9%

## C1CCN2C[C@@H]3C[C@@H](CN4CCCC[C@@H]34)[C@H]2C1 [SPARTEINE SULFATE]
Cryptosporidium parvum; [1]
  inhibition at 10 µM: -14.6%
HCT-8 host cells (Hs18S); [2]
  Hs18S ΔCT: 0.04
In vitro
  cytotoxicity at 10 µM: 3%

## NCCCCNCCCN [SPERMIDINE TRIHYDROCHLORIDE]
Cryptosporidium parvum; [1]
  inhibition at 10 µM: 23.9%
HCT-8 host cells (Hs18S); human, 41 h, 10 μM
  Hs18S ΔCT: -0.63
In vitro
  cytotoxicity at 41 h, 10 µM: -54.4%

## NCCCNCCCCNCCCN [SPERMINE]
Cryptosporidium parvum; [1]
  inhibition at 10 µM: -7.42%
HCT-8 host cells (Hs18S); human, 41 h, 10 μM
  Hs18S ΔCT: -0.43
In vitro
  cytotoxicity at 41 h, 10 µM: -35.1%

## COc1cc2ccc(=O)oc2c2ccoc12 [SPHONDIN]
Cryptosporidium parvum; [1]
  inhibition at 10 µM: -5.49%
HCT-8 host cells (Hs18S); [2]
  Hs18S ΔCT: 0.32
In vitro
  cytotoxicity at 10 µM: 20.1%

## COc1cc(C)c2c(c1C=O)Oc1c(c(C)c(O)c3c1C(O)OC3=O)OC2=O (centres unmarked) [STICTIC ACID]
Cryptosporidium parvum; [1]
  inhibition at 10 µM: -0.45%
HCT-8 host cells (Hs18S); human, 41 h, 10 μM
  Hs18S ΔCT: 0.08
In vitro
  cytotoxicity at 41 h, 10 µM: 5.5%

## CC[C@H](/C=C/[C@@H](C)[C@H]1CC[C@H]2[C@@H]3CC=C4C[C@@H](O)CC[C@]4(C)[C@H]3CC[C@]12C)C(C)C [STIGMASTEROL]
Cryptosporidium parvum; [1]
  inhibition at 10 µM: -18%
HCT-8 host cells (Hs18S); [2]
  Hs18S ΔCT: 0.96
In vitro
  cytotoxicity at 10 µM: 48.6%

## [H]/N=C(/N)N[C@H]1[C@H](O)[C@@H](O)[C@H](O[C@@H]2O[C@@H](C)[C@](O)(C=O)[C@H]2O[C@@H]2O[C@@H](CO)[C@H](O)[C@@H](O)[C@@H]2NC)[C@@H](N/C(N)=N\[H])[C@@H]1O [STREPTOMYCIN SULFATE]
Cryptosporidium parvum; [1]
  inhibition at 10 µM: 15.4%
HCT-8 host cells (Hs18S); human, 41 h, 10 μM
  Hs18S ΔCT: -0.10
In vitro
  cytotoxicity at 41 h, 10 µM: -7.1%

## O=C1C[C@@H]2OCC=C3CN4CC[C@]56c7ccccc7N1[C@H]5[C@H]2[C@H]3C[C@H]46 [STRYCHNINE]
Cryptosporidium parvum
  inhibition at 10 µM: 29%
HCT-8 host cells (Hs18S)
  Hs18S ΔCT: -0.30
In vitro
  cytotoxicity at 10 µM: -23.5%

## COc1cc(C(=O)O)cc(OC)c1O [SYRINGIC ACID]
Cryptosporidium parvum; [1]
  inhibition at 10 µM: 3.63%
HCT-8 host cells (Hs18S); [2]
  Hs18S ΔCT: -0.26
In vitro
  cytotoxicity at 10 µM: -20%
